Data: article PMC7347136 (PLoS ONE, 2020)

Columns and labels:
Test in all cases: Carna kinase panel screen
Format in all cases: biochemical
Conditions in all cases: read-out: % Inhibition ± SD
PKCh = target: T1, PKCh (Homo sapiens, UniProt P24723)
T1 construct: purchased Carna Biosciences
Protocol: (§1) IC50 values were determined from a 10-point concentration curve using ATP concentrations approximating Km values. […] The percentage inhibition of each test solution was calculated, which allowed the IC50 value to be determined from concentration versus percentage inhibition curves by fitting to a four parameter logistic curve.

RSK1 = target: T2, RSK1 (Homo sapiens, UniProt Q15418)
T2 construct: purchased Carna Biosciences
Protocol: as §1

SLK = target: T3, SLK (Homo sapiens, UniProt Q9H2G2)
T3 construct: purchased Carna Biosciences
Protocol: as §1

MST3 = target: T4, MST3 (Homo sapiens, UniProt Q9Y6E0)
T4 construct: purchased Carna Biosciences
Protocol: as §1

PKR = target: T5, PKR (Homo sapiens, UniProt P19525)
T5 construct: purchased Carna Biosciences
Protocol: as §1

ROS = target: T6, ROS (Homo sapiens, UniProt P08922)
T6 construct: purchased Carna Biosciences
Protocol: as §1

TSSK2 = target: T7, TSSK2 (Homo sapiens, UniProt Q96PF2)
T7 construct: purchased Carna Biosciences
Protocol: as §1

MAP3K5 = target: T8, MAP3K5 (Homo sapiens, UniProt Q99683)
T8 construct: purchased Carna Biosciences
Protocol: as §1

AKT1 = target: T9, AKT1 (Homo sapiens, UniProt P31749)
T9 construct: purchased Carna Biosciences
Protocol: as §1

PIM2 = target: T10, PIM2 (Homo sapiens, UniProt Q9P1W9)
T10 construct: purchased Carna Biosciences
Protocol: as §1

ROCK1 = target: T11, ROCK1 (Homo sapiens, UniProt Q13464)
T11 construct: purchased Carna Biosciences
Protocol: as §1

CSK = target: T12, CSK (Homo sapiens, UniProt P41240)
T12 construct: purchased Carna Biosciences
Protocol: as §1

AXL = target: T13, AXL (Homo sapiens, UniProt P30530)
T13 construct: purchased Carna Biosciences
Protocol: as §1

AMPKa2 = target: T14, AMPKa2 (Homo sapiens, UniProt P54646)
T14 construct: purchased Carna Biosciences
Protocol: as §1

MAP2K5 = target: T15, MAP2K5 (Homo sapiens, UniProt Q13163)
T15 construct: purchased Carna Biosciences
Protocol: as §1

LOK = target: T16, LOK (Homo sapiens, UniProt O94804)
T16 construct: purchased Carna Biosciences
Protocol: as §1

RSK2 = target: T17, RSK2 (Homo sapiens, UniProt P51812)
T17 construct: purchased Carna Biosciences
Protocol: as §1

CDC2 = target: T18, CDC2 (Homo sapiens, UniProt P06493)
T18 construct: purchased Carna Biosciences
Protocol: as §1

MAP3K3 = target: T19, MAP3K3 (Homo sapiens, UniProt Q99759)
T19 construct: purchased Carna Biosciences
Protocol: as §1

MAPKAPK3 = target: T20, MAPKAPK3 (Homo sapiens, UniProt Q16644)
T20 construct: purchased Carna Biosciences
Protocol: as §1

BRK = target: T21, BRK (Homo sapiens, UniProt Q13882)
T21 construct: purchased Carna Biosciences
Protocol: as §1

TNK1 = target: T22, TNK1 (Homo sapiens, UniProt Q13470)
T22 construct: purchased Carna Biosciences
Protocol: as §1

DYRK2 = target: T23, DYRK2 (Homo sapiens, UniProt Q92630)
T23 construct: purchased Carna Biosciences
Protocol: as §1

CDK2 = target: T24, CDK2 (Homo sapiens, UniProt P24941)
T24 construct: purchased Carna Biosciences
Protocol: as §1

ITK = target: T25, ITK (Homo sapiens, UniProt Q08881)
T25 construct: purchased Carna Biosciences
Protocol: as §1

CK1d = target: T26, CK1d (Homo sapiens, UniProt P48730)
T26 construct: purchased Carna Biosciences
Protocol: as §1

TRKA = target: T27, TRKA (Homo sapiens, UniProt P04629)
T27 construct: purchased Carna Biosciences
Protocol: as §1

PKCq = target: T28, PKCq (Homo sapiens, UniProt Q04759)
T28 construct: purchased Carna Biosciences
Protocol: as §1

PDGFRa = target: T29, PDGFRa (Homo sapiens, UniProt P16234)
T29 construct: purchased Carna Biosciences
Protocol: as §1

EphA8 = target: T30, EphA8 (Homo sapiens, UniProt P29322)
T30 construct: purchased Carna Biosciences
Protocol: as §1

ABL = target: T31, ABL (Homo sapiens, UniProt P00519)
T31 construct: purchased Carna Biosciences
Protocol: as §1

MINK = target: T32, MINK (Homo sapiens, UniProt Q8N4C8)
T32 construct: purchased Carna Biosciences
Protocol: as §1

MAPKAPK2 = target: T33, MAPKAPK2 (Homo sapiens, UniProt P49137)
T33 construct: purchased Carna Biosciences
Protocol: as §1

SRM = target: T34, SRM (Homo sapiens, UniProt Q9H3Y6)
T34 construct: purchased Carna Biosciences
Protocol: as §1

LYNb = target: T35, LYNb (Homo sapiens, UniProt P07948)
T35 construct: purchased Carna Biosciences
Protocol: as §1

HIPK3 = target: T36, HIPK3 (Homo sapiens, UniProt Q9H422)
T36 construct: purchased Carna Biosciences
Protocol: as §1

PKD3 = target: T37, PKD3 (Homo sapiens, UniProt O94806)
T37 construct: purchased Carna Biosciences
Protocol: as §1

SGK2 = target: T38, SGK2 (Homo sapiens, UniProt Q9HBY8)
T38 construct: purchased Carna Biosciences
Protocol: as §1

PLK3 = target: T39, PLK3 (Homo sapiens, UniProt Q9H4B4)
T39 construct: purchased Carna Biosciences
Protocol: as §1

TIE2 = target: T40, TIE2 (Homo sapiens, UniProt Q02763)
T40 construct: purchased Carna Biosciences
Protocol: as §1

PDGFRb = target: T41, PDGFRb (Homo sapiens, UniProt P09619)
T41 construct: purchased Carna Biosciences
Protocol: as §1

TAK1 = target: T42, TAK1 (Homo sapiens, UniProt O43318)
T42 construct: purchased Carna Biosciences
Protocol: as §1

MARK1 = target: T43, MARK1 (Homo sapiens, UniProt Q9P0L2)
T43 construct: purchased Carna Biosciences
Protocol: as §1

LYNa = target: T44, LYNa (Homo sapiens, UniProt P07948)
T44 construct: purchased Carna Biosciences
Protocol: as §1

T35 sequence (P07948 1-491 isoform P07948-2): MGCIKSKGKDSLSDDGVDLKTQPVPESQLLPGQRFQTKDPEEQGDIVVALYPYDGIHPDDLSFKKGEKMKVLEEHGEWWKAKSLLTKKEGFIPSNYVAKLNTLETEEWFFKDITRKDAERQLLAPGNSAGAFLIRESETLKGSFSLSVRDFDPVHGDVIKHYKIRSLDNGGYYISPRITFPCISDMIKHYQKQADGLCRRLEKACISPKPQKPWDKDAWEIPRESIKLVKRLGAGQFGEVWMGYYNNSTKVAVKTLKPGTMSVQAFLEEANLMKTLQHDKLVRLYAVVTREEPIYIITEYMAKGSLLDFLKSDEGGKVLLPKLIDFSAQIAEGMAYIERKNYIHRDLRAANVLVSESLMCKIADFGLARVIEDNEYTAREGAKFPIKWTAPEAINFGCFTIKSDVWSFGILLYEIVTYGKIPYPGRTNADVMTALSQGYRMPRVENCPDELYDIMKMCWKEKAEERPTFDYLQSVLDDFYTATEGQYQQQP
T28 sequence (Q04759 whole entry): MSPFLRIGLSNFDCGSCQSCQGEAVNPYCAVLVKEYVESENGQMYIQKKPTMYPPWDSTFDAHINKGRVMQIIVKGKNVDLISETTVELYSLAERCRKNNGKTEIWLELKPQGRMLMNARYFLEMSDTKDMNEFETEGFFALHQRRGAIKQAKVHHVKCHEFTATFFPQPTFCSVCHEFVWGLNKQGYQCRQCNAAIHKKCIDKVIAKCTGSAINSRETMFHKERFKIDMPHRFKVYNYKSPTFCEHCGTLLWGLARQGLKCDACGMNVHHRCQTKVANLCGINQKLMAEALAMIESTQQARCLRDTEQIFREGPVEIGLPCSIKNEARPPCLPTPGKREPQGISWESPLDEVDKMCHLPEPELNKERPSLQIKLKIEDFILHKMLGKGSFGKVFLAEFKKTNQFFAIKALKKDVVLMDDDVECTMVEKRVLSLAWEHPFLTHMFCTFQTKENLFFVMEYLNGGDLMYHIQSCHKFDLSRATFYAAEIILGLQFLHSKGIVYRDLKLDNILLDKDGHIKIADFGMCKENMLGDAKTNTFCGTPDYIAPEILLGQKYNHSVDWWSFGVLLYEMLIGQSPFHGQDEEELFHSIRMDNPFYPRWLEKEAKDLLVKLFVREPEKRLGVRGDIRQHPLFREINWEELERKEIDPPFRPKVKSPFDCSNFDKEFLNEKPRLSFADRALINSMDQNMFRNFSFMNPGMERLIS
T13 sequence (P30530 26-894): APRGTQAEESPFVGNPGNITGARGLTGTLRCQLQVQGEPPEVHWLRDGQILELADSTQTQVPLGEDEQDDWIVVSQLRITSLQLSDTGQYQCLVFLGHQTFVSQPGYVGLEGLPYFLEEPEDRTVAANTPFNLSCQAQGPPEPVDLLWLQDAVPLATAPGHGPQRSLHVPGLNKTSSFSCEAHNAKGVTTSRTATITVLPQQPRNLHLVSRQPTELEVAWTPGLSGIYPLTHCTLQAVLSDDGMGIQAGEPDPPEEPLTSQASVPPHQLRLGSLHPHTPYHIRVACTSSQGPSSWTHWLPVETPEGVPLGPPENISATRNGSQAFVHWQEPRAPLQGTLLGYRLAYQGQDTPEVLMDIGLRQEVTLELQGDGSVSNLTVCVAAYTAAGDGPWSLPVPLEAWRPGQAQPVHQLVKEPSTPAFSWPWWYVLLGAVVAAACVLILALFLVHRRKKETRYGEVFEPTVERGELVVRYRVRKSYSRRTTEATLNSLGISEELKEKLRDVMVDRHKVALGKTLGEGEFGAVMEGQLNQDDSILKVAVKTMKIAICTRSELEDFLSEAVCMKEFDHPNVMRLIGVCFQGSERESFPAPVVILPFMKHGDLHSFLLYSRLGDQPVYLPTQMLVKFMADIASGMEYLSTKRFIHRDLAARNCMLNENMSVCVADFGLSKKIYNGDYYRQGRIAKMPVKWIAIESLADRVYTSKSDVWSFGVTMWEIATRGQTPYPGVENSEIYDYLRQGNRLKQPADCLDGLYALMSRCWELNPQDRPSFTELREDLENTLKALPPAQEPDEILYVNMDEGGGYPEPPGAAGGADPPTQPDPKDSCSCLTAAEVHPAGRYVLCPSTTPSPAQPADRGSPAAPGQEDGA
T25 sequence (Q08881 whole entry): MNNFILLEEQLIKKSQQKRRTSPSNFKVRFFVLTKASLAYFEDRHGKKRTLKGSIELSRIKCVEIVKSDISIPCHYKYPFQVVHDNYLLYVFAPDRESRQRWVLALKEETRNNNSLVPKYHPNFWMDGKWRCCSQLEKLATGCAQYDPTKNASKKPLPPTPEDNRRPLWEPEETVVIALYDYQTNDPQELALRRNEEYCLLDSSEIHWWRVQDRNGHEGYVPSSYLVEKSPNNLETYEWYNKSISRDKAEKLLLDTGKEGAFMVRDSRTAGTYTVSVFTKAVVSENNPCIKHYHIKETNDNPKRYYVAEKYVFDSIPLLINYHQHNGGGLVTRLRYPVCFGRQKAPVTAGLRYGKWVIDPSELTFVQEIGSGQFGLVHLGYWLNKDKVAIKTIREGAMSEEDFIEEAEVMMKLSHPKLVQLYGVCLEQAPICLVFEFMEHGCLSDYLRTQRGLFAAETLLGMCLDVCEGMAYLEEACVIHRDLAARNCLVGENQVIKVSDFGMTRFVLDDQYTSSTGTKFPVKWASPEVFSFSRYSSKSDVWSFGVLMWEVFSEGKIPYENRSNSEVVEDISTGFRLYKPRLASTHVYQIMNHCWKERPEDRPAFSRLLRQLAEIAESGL
T40 sequence (Q02763 23-1124): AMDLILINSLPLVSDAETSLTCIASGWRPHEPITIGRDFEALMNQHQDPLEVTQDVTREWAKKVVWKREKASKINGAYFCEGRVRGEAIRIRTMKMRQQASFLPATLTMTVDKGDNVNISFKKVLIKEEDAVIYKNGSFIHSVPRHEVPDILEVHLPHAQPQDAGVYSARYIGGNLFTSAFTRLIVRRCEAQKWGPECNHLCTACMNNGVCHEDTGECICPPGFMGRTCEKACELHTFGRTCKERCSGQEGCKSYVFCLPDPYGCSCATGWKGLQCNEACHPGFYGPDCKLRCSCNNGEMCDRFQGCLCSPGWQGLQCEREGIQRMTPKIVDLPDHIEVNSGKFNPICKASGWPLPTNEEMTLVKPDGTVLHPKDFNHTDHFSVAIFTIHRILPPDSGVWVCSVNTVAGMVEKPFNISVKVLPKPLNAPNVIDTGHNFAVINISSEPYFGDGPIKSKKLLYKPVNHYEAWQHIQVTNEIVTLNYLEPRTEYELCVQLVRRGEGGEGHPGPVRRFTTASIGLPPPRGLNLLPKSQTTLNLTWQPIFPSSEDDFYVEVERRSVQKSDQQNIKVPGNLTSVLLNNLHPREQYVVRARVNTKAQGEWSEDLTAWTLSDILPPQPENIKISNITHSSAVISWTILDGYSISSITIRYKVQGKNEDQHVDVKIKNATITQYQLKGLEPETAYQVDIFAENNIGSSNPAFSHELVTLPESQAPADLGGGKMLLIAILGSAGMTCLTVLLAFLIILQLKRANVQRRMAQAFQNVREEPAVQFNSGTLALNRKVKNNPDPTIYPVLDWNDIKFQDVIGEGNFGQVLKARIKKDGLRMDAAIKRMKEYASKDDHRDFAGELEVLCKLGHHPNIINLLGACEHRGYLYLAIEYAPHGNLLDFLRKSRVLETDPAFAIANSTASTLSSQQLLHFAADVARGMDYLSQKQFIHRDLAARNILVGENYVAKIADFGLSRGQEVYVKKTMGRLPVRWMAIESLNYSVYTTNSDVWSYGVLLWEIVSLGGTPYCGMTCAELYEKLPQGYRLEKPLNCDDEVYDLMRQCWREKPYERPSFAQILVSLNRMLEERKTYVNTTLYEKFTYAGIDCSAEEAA
T21 sequence (Q13882 whole entry): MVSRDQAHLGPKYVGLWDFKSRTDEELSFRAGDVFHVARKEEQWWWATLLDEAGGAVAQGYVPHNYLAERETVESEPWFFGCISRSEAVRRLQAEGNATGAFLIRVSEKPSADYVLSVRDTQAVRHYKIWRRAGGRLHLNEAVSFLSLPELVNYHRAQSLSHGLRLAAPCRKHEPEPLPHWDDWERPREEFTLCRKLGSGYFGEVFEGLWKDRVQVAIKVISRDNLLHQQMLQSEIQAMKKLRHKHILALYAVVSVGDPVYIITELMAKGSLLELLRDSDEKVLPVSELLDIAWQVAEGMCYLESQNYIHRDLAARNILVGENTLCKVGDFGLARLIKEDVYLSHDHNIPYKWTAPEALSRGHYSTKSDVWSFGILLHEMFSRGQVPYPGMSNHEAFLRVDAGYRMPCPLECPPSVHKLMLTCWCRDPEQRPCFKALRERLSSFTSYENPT
T1 sequence (P24723 whole entry): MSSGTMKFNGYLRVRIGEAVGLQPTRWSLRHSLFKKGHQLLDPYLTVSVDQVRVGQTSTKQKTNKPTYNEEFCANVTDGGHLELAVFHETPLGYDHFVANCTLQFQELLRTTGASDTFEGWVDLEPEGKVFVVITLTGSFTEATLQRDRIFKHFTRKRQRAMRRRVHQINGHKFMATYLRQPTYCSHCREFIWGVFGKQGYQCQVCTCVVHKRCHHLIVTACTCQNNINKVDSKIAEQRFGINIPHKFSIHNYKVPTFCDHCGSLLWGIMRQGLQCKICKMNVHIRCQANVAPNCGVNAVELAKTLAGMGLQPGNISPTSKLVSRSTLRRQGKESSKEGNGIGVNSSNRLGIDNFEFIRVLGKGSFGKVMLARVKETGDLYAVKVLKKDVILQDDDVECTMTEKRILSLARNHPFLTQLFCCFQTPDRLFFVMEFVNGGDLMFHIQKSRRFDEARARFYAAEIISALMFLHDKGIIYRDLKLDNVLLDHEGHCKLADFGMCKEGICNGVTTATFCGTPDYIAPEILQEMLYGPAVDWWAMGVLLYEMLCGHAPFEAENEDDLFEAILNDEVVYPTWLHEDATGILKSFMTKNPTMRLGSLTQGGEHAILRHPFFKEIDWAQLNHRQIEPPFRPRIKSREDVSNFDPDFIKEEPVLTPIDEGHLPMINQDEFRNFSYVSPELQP

CC[C@H](Nc1nc(NCc2cnc(C)cc2C)c2ncn(C(C)C)c2n1)[C@@H](C)O [Fadraciclib, 2-pentanol, 3-[[6-[[(4,6-dimethyl-3-pyridinyl)methyl]amino]-9-(1-methylethyl)-9Hpurin-2-yl]amino]-, (2R,3S)]
inhibition at 1 µM (PKCh): -6.1 ± 0.1% | inhibition at 1 µM (RSK1): 5.1% | inhibition at 1 µM (SLK): 2.5 ± 0.1% | inhibition at 1 µM (MST3): -16.4 ± 0.7% | inhibition at 1 µM (PKR): 1.1% | inhibition at 1 µM (ROS): -2 ± 0.1% | inhibition at 1 µM (TSSK2): 0.7% | inhibition at 1 µM (MAP3K5): 5.2 ± 0.2% | inhibition at 1 µM (AKT1): -0.6% | inhibition at 1 µM (PIM2): 2.9 ± 0.2% | inhibition at 1 µM (ROCK1): -1.3% | inhibition at 1 µM (CSK): -18.7 ± 0.4% | inhibition at 1 µM (AXL): -11.1 ± 0.1% | inhibition at 1 µM (AMPKa2): -12.8 ± 0.7% | inhibition at 1 µM (MAP2K5): 11.9 ± 1.6% | inhibition at 1 µM (LOK): -23.8 ± 0.3% | inhibition at 1 µM (RSK2): 5.6 ± 0.1% | inhibition at 1 µM (CDC2): 57.9 ± 1.3% | inhibition at 1 µM (MAP3K3): -2.6 ± 0.1% | inhibition at 1 µM (MAPKAPK3): -6.1 ± 0.3% | inhibition at 1 µM (BRK): 2.4 ± 0.1% | inhibition at 1 µM (TNK1): -0.2 ± 0.2% | inhibition at 1 µM (DYRK2): -1.8 ± 0.1% | inhibition at 1 µM (CDK2): 97.3% | inhibition at 1 µM (ITK): 2.3 ± 0.1% | inhibition at 1 µM (CK1d): 13.8 ± 0.4% | inhibition at 1 µM (TRKA): -10.3 ± 0.3% | inhibition at 1 µM (PKCq): 0.7% | inhibition at 1 µM (PDGFRa): 5.8 ± 0.2% | inhibition at 1 µM (EphA8): 4.2 ± 0.2% | inhibition at 1 µM (ABL): -12.7 ± 0.3% | inhibition at 1 µM (MINK): -15.8 ± 0.3% | inhibition at 1 µM (MAPKAPK2): -8.6 ± 0.1% | inhibition at 1 µM (SRM): 3.5 ± 0.1% | inhibition at 1 µM (LYNb): -8.7 ± 0.1% | inhibition at 1 µM (HIPK3): -1.1% | inhibition at 1 µM (PKD3): -1.4% | inhibition at 1 µM (SGK2): 0.9% | inhibition at 1 µM (PLK3): 5.7 ± 0.3% | inhibition at 1 µM (TIE2): 2.9 ± 0.2% | inhibition at 1 µM (PDGFRb): 3.2 ± 0.1% | inhibition at 1 µM (TAK1): 0.3% | inhibition at 1 µM (MARK1): -9.7 ± 0.1% | inhibition at 1 µM (LYNa): 2.2 ± 0.1%
